Measured values: patent publication US11925629B2, “Heterocyclic inhibitors of ERK1 and ERK2 and their use in the treatment of cancer” (Asana Biosciences, LLC, priority 2015, dated 2024)
Read-outs that look alike come from different tables or passages of the source.

Experiments:
[1] = tested on: HCT116 (colorectal carcinoma, K Ras G13D) cells; assay: Cell proliferation (Alamar Blue) assay, HCT116; format: cell-based, human
Method in brief: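 A 72 h exposure to compound (3-fold series, typically 0.0005 to 10 uM) of cells seeded at 5000/well precedes a 1-3 h Alamar Blue (1×) incubation. Growth inhibition is quantified by fluorescence and fitted to give IC50.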

[2] = tested on: phosphorylation of RSK1(S380) (the downstream target of ERK1/2); assay: Phospho-RSK1(S380) ELISA assay in HT-29 cells; format: cell-based, human; conditions: Homo sapiens, HT-29, HT29 cells, read-out: Mechanistic Cell Assay RSK1 Phos HT29 IC50
Method: Phospho-RSK1(S380) ELISA Assay
HT-29 cells (colorectal carcinoma, B-RafV600E); obtained from ATCC, USA) were seeded (60,000 cells/well) in a 96-well plate and incubated at 37° C./5% CO2 overnight and then treated with desired compound dilutions for 2 h. Medium was removed and cells were rinsed once with ice-cold 1×PBS, then 0.070 mL ice-cold 1× cell lysis buffer containing 1 mM PMSF was added to each well and the plate was incubated on a shaker for 2 h and 30 min at 4° C. The plate was then centrifuged for 20 min (×4000 rpm) at 4° C. and the supernatant was transferred to a new plate. Cell lysates were diluted with sample diluent at a ratio of 1:1. The ELISA was then carried out following the manufacturer's protocol (PathScan® phospho-RSK1(Ser380) Sandwich ELISA Kit, Cell Signaling Technologies). The plate was read at 450 nm within 30 min after adding STOP solution. The IC50 values were subsequently determined using a sigmoidal dose-response curve (variable slope) in GraphPad Prism® 5 software.

[3] = Homo sapiens, HCT-116, HCT116 cells

SMILES | IC50 [1, 3] | IC50 ([2]; phospho-RSK1(S380)) | IC50 ([1]; HCT116 cells) | IC50 [2]
Cc1cnc(NC2CCOCC2)nc1-n1cnc(C(=O)NC(CO)c2cccs2)c1 (centres unmarked) [Example 233, N-(2-hydroxy-1-(thiophen-2-yl)ethyl)-1-(5-methyl-2-((tetrahydro-2H-pyran-4-yl)amino)pyrimidin-4-yl)-1H-imidazole-4-carboxamide] | > 2500 nM | ≤ 100 nM | – | –
Cc1cnc(Nc2ccc(F)cc2)nc1-n1cnc(C(=O)N[C@H](CN)c2cccc(Cl)c2)c1 [Example 248, (S)-N-(2-amino-1-(3-chlorophenyl)ethyl)-1-(2-((4-fluorophenyl)amino)-5-methylpyrimidin-4-yl)-1H-imidazole-4-carboxamide] | ≤ 100 nM | 100 to 250 nM | – | –
Cc1cnc(NC2CCOCC2)nc1-n1cnc(C(=O)NC(CN)c2cccs2)c1 (centres unmarked) [Example 267, N-(2-amino-1-(thiophen-2-yl)ethyl)-1-(5-methyl-2-((tetrahydro-2H-pyran-4-yl)amino)pyrimidin-4-yl)-1H-imidazole-4-carboxamide] | 100 to 250 nM | 100 to 250 nM | – | –
Cc1cnc(Nc2ccc3c(c2)OCO3)nc1-n1cnc(C(=O)N[C@H](CN)c2cccc(Cl)c2)c1 [Example 266, (S)-N-(2-amino-1-(3-chlorophenyl)ethyl)-1-(2-(benzo[d][1,3]dioxol-5-ylamino)-5-methylpyrimidin-4-yl)-1H-imidazole-4-carboxamide] | ≤ 100 nM | ≤ 100 nM | – | –
Cc1cnc(Nc2ccc(F)c(N3CCOCC3)c2)nc1-n1cnc(C(=O)NC(CN)c2cccc(Cl)c2)c1 (centres unmarked) [Example 256, N-(2-amino-1-(3-chlorophenyl)ethyl)-1-(2-((4-fluoro-3-morpholinophenyl)amino)-5-methylpyrimidin-4-yl)-1H-imidazole-4-carboxamide] | ≤ 100 nM | ≤ 100 nM | – | –
Cc1cnc(NC2CC(F)(F)C2)nc1-n1cnc(C(=O)NCc2cccc(Cl)c2CO)c1 [Example 273, N-(3-chloro-2-(hydroxymethyl)benzyl)-1-(2-((3,3-difluorocyclobutyl)amino)-5-methylpyrimidin-4-yl)-1H-imidazole-4-carboxamide] | ≤ 100 nM | 100 to 250 nM | – | –
Cc1cnc(NC2CCOCC2)nc1-n1cnc(C(=O)NC(C(N)=O)c2cccc(Cl)c2)c1 (centres unmarked) [Example 312, N-(2-amino-1-(3-chlorophenyl)-2-oxoethyl)-1-(5-methyl-2-((tetrahydro-2H-pyran-4-yl)amino)pyrimidin-4-yl)-1H-imidazole-4-carboxamide] | > 2500 nM | – | – | 500 to 2500 nM
Cc1cnc(NC2CC=CCC2)nc1-n1cnc(C(=O)N[C@H](CN)c2cccc(Cl)c2)c1 (stereo partly drawn) [Example 292, N-((S)-2-amino-1-(3-chlorophenyl)ethyl)-1-(2-(cyclohex-3-en-1-ylamino)-5-methylpyrimidin-4-yl)-1H-imidazole-4-carboxamide] | ≤ 100 nM | ≤ 100 nM | – | –
Cc1cnc(NC2CCOc3ccccc32)nc1-n1cnc(C(=O)N[C@H](CO)c2cccc(Cl)c2)c1 (stereo partly drawn) [Example 247, N-((S)-1-(3-chlorophenyl)-2-hydroxyethyl)-1-(2-(chroman-4-ylamino)-5-methylpyrimidin-4-yl)-1H-imidazole-4-carboxamide] | > 2500 nM | ≤ 100 nM | – | –
Cc1cnc(NC2CCOCC2)nc1-n1cnc(C(=O)NC(CO)c2cccc(C(F)(F)F)c2)c1 (centres unmarked) [Example 237, N-(2-hydroxy-1-(3-(trifluoromethyl)phenyl)ethyl)-1-(5-methyl-2-((tetrahydro-2H-pyran-4-yl)amino)pyrimidin-4-yl)-1H-imidazole-4-carboxamide] | > 2500 nM | 250 to 500 nM | – | –
Cc1cnc(NC2CCOCC2)nc1-n1cnc(C(=O)NC(c2cccc(Cl)c2)C(C)O)c1 (single isomer, unassigned; isomer #2) [Example 252, N-(1-(3-chlorophenyl)-2-hydroxypropyl)-1-(5-methyl-2-((tetrahydro-2H-pyran-4-yl)amino)pyrimidin-4-yl)-1H-imidazole-4-carboxamide (isomer #2)] | 250 to 500 nM | 100 to 250 nM | – | –
O=C(Nc1cnn(-c2ccnc(Nc3ccccc3)c2)c1)N[C@H](CO)c1cccc(Cl)c1 [Example 34, (S)-1-(1-(3-chlorophenyl)-2-hydroxy-ethyl)-3-(1-(2-(phenyl-amino)pyridin-4-yl)-1H-pyrazol-4-yl)urea] | > 2500 nM | > 2500 nM | – | –
Cc1cnc(NC2CCOC(C)C2)nc1-n1cnc(C(=O)N[C@H](CO)c2cccc(Cl)c2)c1 (stereo partly drawn) [Example 251, N-((S)-1-(3-chlorophenyl)-2-hydroxyethyl)-1-(5-methyl-2-((2-methyltetrahydro-2H-pyran-4-yl)amino)pyrimidin-4-yl)-1H-imidazole-4-carboxamide] | 250 to 500 nM | ≤ 100 nM | – | –
Cc1cnc(NC2CCOCC2)nc1-n1cnc(C(=O)NC(CO)c2cccc(C(C)(C)C)c2)c1 (centres unmarked) [Example 258, N-(1-(3-(tert-butyl)phenyl)-2-hydroxyethyl)-1-(5-methyl-2-((tetrahydro-2H-pyran-4-yl)amino)pyrimidin-4-yl)-1H-imidazole-4-carboxamide] | 500 to 2500 nM | 250 to 500 nM | – | –
Cc1cnc(NC2CCOCC2)nc1-n1cnc(C(=O)NCc2ccccc2C(C)(C)O)c1 [Example 293, N-(2-(2-hydroxypropan-2-yl)benzyl)-1-(5-methyl-2-((tetrahydro-2H-pyran-4-yl)amino)pyrimidin-4-yl)-1H-imidazole-4-carboxamide] | 500 to 2500 nM | 500 to 2500 nM | – | –
Cc1cnc(Nc2ccc(F)cc2)nc1-n1cnc(C(=O)NCc2cccc(Cl)c2CO)c1 [Example 262, N-(3-chloro-2-(hydroxymethyl)benzyl)-1-(2-((4-fluorophenyl)amino)-5-methylpyrimidin-4-yl)-1H-imidazole-4-carboxamide] | 500 to 2500 nM | ≤ 100 nM | – | –
Cc1cnc(NC2CCOc3ccccc32)nc1-n1cnc(C(=O)N[C@H](CN)c2cccc(Cl)c2)c1 (stereo partly drawn) [Example 271, N-((S)-2-amino-1-(3-chlorophenyl)ethyl)-1-(2-(chroman-4-ylamino)-5-methylpyrimidin-4-yl)-1H-imidazole-4-carboxamide] | ≤ 100 nM | ≤ 100 nM | – | –

More lines, now with the values ahead:

IC50 [1, 3] | IC50 ([2]; phospho-RSK1(S380)) | IC50 ([1]; HCT116 cells) | IC50 [2] | SMILES
100 to 250 nM | 100 to 250 nM | – | – | Cc1cnc(NC2CCOC2)nc1-n1cnc(C(=O)NC(CN)c2cccc(Cl)c2)c1 (centres unmarked) [Example 235, N-(2-amino-1-(3-chlorophenyl)ethyl)-1-(5-methyl-2-((tetrahydrofuran-3-yl)amino)pyrimidin-4-yl)-1H-imidazole-4-carboxamide]
100 to 250 nM | 250 to 500 nM | – | – | Cc1cnc(N[C@@H]2CCOC2)nc1-n1cnc(C(=O)N[C@H](CO)c2cccc(Cl)c2)c1 [Example 265, N-((S)-1-(3-chlorophenyl)-2-hydroxyethyl)-1-(5-methyl-2-(((R)-tetrahydrofuran-3-yl)amino)pyrimidin-4-yl)-1H-imidazole-4-carboxamide]
– | 500 to 2500 nM | > 2500 nM | – | Cc1cnc(NC2CCOCC2)nc1-n1cnc(C(=O)NCc2ccccc2CCO)c1 [Example 243, N-(2-(2-hydroxyethyl)benzyl)-1-(5-methyl-2-((tetrahydro-2H-pyran-4-yl)amino)pyrimidin-4-yl)-1H-imidazole-4-carboxamide]
> 2500 nM | – | – | 250 to 500 nM | Cc1cnc(N[C@H]2CCOC2)nc1-n1cnc(C(=O)NCc2ccc(Cl)c(Cl)c2)c1 [Example 314, (S)-N-(3,4-dichlorobenzyl)-1-(5-methyl-2-((tetrahydrofuran-3-yl)amino)pyrimidin-4-yl)-1H-imidazole-4-carboxamide]
100 to 250 nM | ≤ 100 nM | – | – | Cc1cnc(N[C@@H]2CCOC2)nc1-n1cnc(C(=O)N[C@H](CN)c2cccc(Cl)c2)c1 [Example 264, N-((S)-2-amino-1-(3-chlorophenyl)ethyl)-1-(5-methyl-2-(((R)-tetrahydrofuran-3-yl)amino)pyrimidin-4-yl)-1H-imidazole-4-carboxamide]
> 2500 nM | – | – | 250 to 500 nM | Cc1cnc(N[C@H]2CCOC2)nc1-n1cnc(C(=O)NCc2cc(Cl)cc(Cl)c2)c1 [Example 313, (S)-N-(3,5-dichlorobenzyl)-1-(5-methyl-2-((tetrahydrofuran-3-yl)amino)pyrimidin-4-yl)-1H-imidazole-4-carboxamide]
≤ 100 nM | ≤ 100 nM | – | – | Cc1cnc(NC2CC(F)(F)C2)nc1-n1cnc(C(=O)NC(CN)c2cc(F)cc(Cl)c2)c1 (centres unmarked) [Example 278, N-(2-amino-1-(3-chloro-5-fluorophenyl)ethyl)-1-(2-((3,3-difluorocyclobutyl)amino)-5-methylpyrimidin-4-yl)-1H-imidazole-4-carboxamide]
≤ 100 nM | ≤ 100 nM | – | – | Cc1cnc(NC2COC2)nc1-n1cnc(C(=O)N[C@H](CN)c2cccc(Cl)c2)c1 [Example 268, (S)-N-(2-amino-1-(3-chlorophenyl)ethyl)-1-(5-methyl-2-(oxetan-3-ylamino)pyrimidin-4-yl)-1H-imidazole-4-carboxamide]
